The source of these data is article PMC6099617, “Synthesis of Antibacterial Nisin–Peptoid Hybrids Using Click Methodology” (Molecules : A Journal of Synthetic Chemistry and Natural …, 2018).

Assay [1] has as its system methicillin-resistant Staphylococcus aureus USA 300. The assay is described as follows: microbe, parasite or virus in culture. To be noted: MRSA / USA300, read-out: MIC S. aureus (USA300).
For assay [2] the test system is unchanged.
In the next assay the test system is HaCaT keratinocytes. The assay is described as follows: Cytotoxicity assay (alamarBlue cell viability), HaCaT. Type of assay: cell-based. To be noted: 1 hour with compound 2–100 µM, then 24 hours. The procedure: (§1) Cytotoxicity analyses were performed in 96-well plates (Costar, Fisher Scientific) using alamarBlue® (Invitrogen) for cell viability detection using a modified protocol as previously described.9 The HepG2 or HaCaT cells were grown at 37 °C, 5 % CO2 in DMEM10 high glucose supplemented with heat-inactivated foetal bovine sera (FBS, 10 %; Biosera Ltd) and penicillin/streptomycin (P/S, 1 %). Cells were counted using a Neubauer Improved Haemocytometer. Cells were seeded 1 day prior to treatment in 96 well plates at a concentration of 2 x 10^5 cells mL-1 in 100 µL of medium (2 x 10^4 cells/well). Empty wells were filled with 100 µL PBS. After 24 hours, cells were incubated with the compounds in a dilution series in triplicate from 2–100 µM (5 mM stock solutions in DMSO; untreated cells with DMSO as a negative control) in 50 µL of the media for 1 hour. Afterwards, 40 µL of medium was removed from each well before the addition of 90 µL of the media, followed by incubation for 24 hours at 37 °C, 5 % CO2. Then, 10 µL of alamarBlue® (Invitrogen) was added to each well before a 2 hour incubation prior to assessing cell viability using a fluorescent plate reader (Biotek; λex 560 nm, λem 600 nm).
(The colour change of resazurin is a common sign of viable cells or microbes.)

For the next assay, the system named is S. aureus. To be noted: had shown promising antibacterial activities; strain and reference not given; cited from earlier work.
In another assay the test system is epithelial HepG2 cells. The assay can be described thus: Cytotoxicity assay (alamarBlue cell viability), HepG2. Type of assay: cell-based. To be noted: 1 hour with compound 2–100 µM, then 24 hours. The protocol:
as §1

Converted amounts (≈) assume the structure as drawn. Read-outs that look alike come from different tables or passages of the source. Square brackets hold non-standard residues; d marks the D form. Peptide text beside a SMILES is read from it. N(4-F-Bzl)Gly = O=C(O)CNCc1ccc(F)cc1; Gly(N-2-aminoethyl) = NCCNCC(=O)O; Nspe = C[C@H](NCC(=O)O)c1ccccc1; Nlys = NCCCCNCC(=O)O

As for `CN[C@H](CC(C)C)C(=O)N[C@H]1C(=O)N[C@@H](CC(N)=O)C(=O)N[C@H]2C(=O)N[C@H]3C(=O)N[C@H](C(=O)N[C@H](C(=O)O)c4cc(O)cc(O)c4-c4cc3ccc4O)[C@H](O)c3ccc(c(Cl)c3)Oc3cc2cc(c3O[C@@H]2O[C@H](CO)[C@@H](O)[C@H](O)[C@H]2O[C@H]2C[C@](C)(N)[C@H](O)[C@H](C)O2)Oc2ccc(cc2Cl)[C@H]1O` [compound 7, Vancomycin], the MIC in assay [1] was 1 µM (≈ 1.45 µg/mL).
With `C=C1NC(=O)[C@H]([C@@H](C)CC)NC(=O)[C@H](NC(=O)/C(=C/C)NC(=O)[C@@H](N)[C@@H](C)CC)CSC[C@@H](C(=O)N[C@H]2C(=O)N3CCC[C@H]3C(=O)NCC(=O)N[C@H](C(=O)N[C@@H](CCCCN)C(=O)O)CS[C@H]2C)NC(=O)[C@H](CC(C)C)NC1=O` [compound 4, Nisin[1,2,3,4,5,6,7,8,9, 10, 11, 12], reference compound], in assay [2] (MRSA USA300, CAMHB, overnight incubation 35 °C, visual inspection, duplicate), the “MIC S. aureus (USA300)” value is on record as > 100 µM.
Take `C[C@@H](c1ccccc1)N(CC(N)=O)C(=O)CN(C(=O)CN(CCCCN)C(=O)CN(Cc1ccc(F)cc1)C(=O)CN(Cc1ccc(F)cc1)C(=O)CN(CCCCN)C(=O)CN(C(=O)CN(C(=O)CN(CCCCN)C(=O)CN(Cc1ccc(F)cc1)C(=O)CN(Cc1ccc(F)cc1)C(=O)CNCCCCN)[C@@H](C)c1ccccc1)[C@@H](C)c1ccccc1)[C@@H](C)c1ccccc1` [1b, [(NLysNpfbNpfb)(NLysNspeNspe)]2] (H-[Nlys][N(4-F-Bzl)Gly][N(4-F-Bzl)Gly][Nlys][Nspe][Nspe][Nlys][N(4-F-Bzl)Gly][N(4-F-Bzl)Gly][Nlys][Nspe][Nspe]-NH2; N-terminus and C-terminus assumed): in assay [2] (USA 300), the “MIC S. aureus (USA300)” value lay in the range of 2 to 4 µM. In addition, the “ED50 HaCaT” value in the assay on HaCaT keratinocytes was determined as 53 µM. Also, in the assay with S. aureus, the “MIC against S. aureus (reason for choosing the sequences)” value is recorded as “below 2 µM”. Besides, the “ED50 HepG2” value with epithelial HepG2 cells turned out to be 18 µM.
For `C[C@@H](c1ccccc1)N(CC(N)=O)C(=O)CN(C(=O)CN(CCN)C(=O)CN(C(=O)CN(C(=O)CN(CCN)C(=O)CN(C(=O)CN(C(=O)CN(CCN)C(=O)CN(C(=O)CN(C(=O)CNCCN)[C@@H](C)c1ccccc1)[C@@H](C)c1ccccc1)[C@@H](C)c1ccccc1)[C@@H](C)c1ccccc1)[C@@H](C)c1ccccc1)[C@@H](C)c1ccccc1)[C@@H](C)c1ccccc1` [1a, (NaeNspeNspe)4] (H-[Gly(N-2-aminoethyl)][Nspe][Nspe][Gly(N-2-aminoethyl)][Nspe][Nspe][Gly(N-2-aminoethyl)][Nspe][Nspe][Gly(N-2-aminoethyl)][Nspe][Nspe]-NH2; N-terminus and C-terminus assumed), the “MIC S. aureus (USA300)” value in assay [2] (USA 300) is 2 µM (≈ 3.41 µg/mL). The “ED50 HaCaT” value with HaCaT keratinocytes came to 26 µM. Further, in the assay on S. aureus, the “MIC against S. aureus (reason for choosing the sequences)” value is listed as “below 2 µM”. The “ED50 HepG2” value with epithelial HepG2 cells turned out to be 15 µM.
